For assay [1], the target named is T1, Estrogen receptor (Homo sapiens, UniProt P03372).
T1 sequence (P03372 whole entry): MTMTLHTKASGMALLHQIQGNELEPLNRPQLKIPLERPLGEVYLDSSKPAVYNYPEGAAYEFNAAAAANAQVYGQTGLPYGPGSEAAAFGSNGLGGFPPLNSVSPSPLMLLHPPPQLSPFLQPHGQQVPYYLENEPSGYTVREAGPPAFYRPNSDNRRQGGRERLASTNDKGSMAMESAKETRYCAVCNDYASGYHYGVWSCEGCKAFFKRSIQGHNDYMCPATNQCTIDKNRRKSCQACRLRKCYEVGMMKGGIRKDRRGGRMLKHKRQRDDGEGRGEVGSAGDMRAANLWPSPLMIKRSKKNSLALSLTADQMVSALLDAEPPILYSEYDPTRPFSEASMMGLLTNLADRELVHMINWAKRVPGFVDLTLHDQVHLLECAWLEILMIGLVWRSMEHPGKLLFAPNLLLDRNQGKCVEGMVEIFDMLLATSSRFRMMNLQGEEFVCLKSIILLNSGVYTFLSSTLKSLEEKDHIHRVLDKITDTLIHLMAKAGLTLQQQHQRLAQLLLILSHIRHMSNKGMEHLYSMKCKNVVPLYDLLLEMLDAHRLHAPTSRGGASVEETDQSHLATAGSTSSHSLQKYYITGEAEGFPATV
Description: (§1) Agonist activity at human N-terminal His6-tagged ERalpha receptor LBD expressed in Escherichia coli BL21 (DE3) assessed as induction of SRC1 peptide recruitment after 1 hr by fluorescence polarization assay

The target of assay [2] is T2, Estrogen receptor beta (Homo sapiens, UniProt Q92731).
T2 sequence (Q92731 whole entry): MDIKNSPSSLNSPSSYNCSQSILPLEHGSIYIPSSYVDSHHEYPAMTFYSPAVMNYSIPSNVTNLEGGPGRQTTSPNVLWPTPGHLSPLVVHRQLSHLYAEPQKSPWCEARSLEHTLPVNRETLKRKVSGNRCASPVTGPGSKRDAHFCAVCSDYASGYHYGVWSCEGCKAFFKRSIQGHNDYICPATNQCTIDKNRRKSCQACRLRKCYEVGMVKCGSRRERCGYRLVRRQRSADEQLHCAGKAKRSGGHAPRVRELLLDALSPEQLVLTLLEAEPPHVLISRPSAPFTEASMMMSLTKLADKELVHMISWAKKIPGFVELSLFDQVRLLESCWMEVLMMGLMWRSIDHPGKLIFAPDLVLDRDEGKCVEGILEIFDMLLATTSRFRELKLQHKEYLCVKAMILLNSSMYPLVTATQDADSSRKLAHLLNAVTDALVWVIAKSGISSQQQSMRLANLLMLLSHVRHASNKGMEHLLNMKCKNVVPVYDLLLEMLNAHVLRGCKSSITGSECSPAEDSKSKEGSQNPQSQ
Description: (§2) Agonist activity at human N-terminal His6-tagged ERbeta receptor LBD expressed in Escherichia coli BL21 (DE3) assessed as induction of SRC1 peptide recruitment after 1 hr by fluorescence polarization assay
Assay [3] concerns the target T1, Estrogen receptor. This is another data set of the same source.
Description: as §1
Assay [4] concerns the target T2, Estrogen receptor beta. This is another data set of the same source.
Description: as §2
The target of assay [5] is T3, Estrogen receptor (Homo sapiens) (UniProt P03372).
T3 sequence (whole entry): T1 sequence (P03372 whole entry)
The assay can be described thus: Transcriptional activation of human ERalpha receptor transfected in human U2OS cells assessed as increase of luciferase activity by estrogen response element-luciferase reporter gene assay relative to control. The assay is classed as cell-based.

Assay [6] concerns the target T2, Estrogen receptor beta. The assay can be described thus: Transcriptional activation of human ERbeta receptor transfected in human U2OS cells assessed as increase of luciferase activity by estrogen response element-luciferase reporter gene assay relative to control. The assay is classed as cell-based.
For assay [7], the target named is T1, Estrogen receptor. The assay can be described thus: Transcriptional activation of human ERalpha receptor transfected in human U2OS cells assessed as increase of luciferase activity by estrogen response element-luciferase reporter gene assay. In kind it is cell-based.
Assay [8] addresses T2, Estrogen receptor beta. As to the kind of experiment: Transcriptional activation of human ERbeta receptor transfected in human U2OS cells assessed as increase of luciferase activity by estrogen response element-luciferase reporter gene assay. The assay is classed as cell-based.

On to `COc1ccc2c(c1)CCN(C(=O)C(F)(F)F)C2`, for which the EC50 is 340 µM on Estrogen receptor [1] and 227 µM on Estrogen receptor beta [2].

As for `CC(C)(C)OC(=O)N1CCc2cc(O)ccc2C1`, on Estrogen receptor beta [2], the EC50 was determined as 1.1 µM.

As to `O=C(N1CCc2cc(O)ccc2C1)C(F)(F)Cl`, the half-maximal effective concentration (EC50) on Estrogen receptor [1] was determined as 2.3 µM; at Estrogen receptor beta [2], 1.6 µM.

Consider `O=C(N1CCc2ccccc2C1)C(F)(F)F`, for which the EC50 result at Estrogen receptor [3] and on Estrogen receptor beta [4] was “Not Active” each time.

Regarding `Br.Oc1ccc2c(c1)CCNC2`, the EC50 result on Estrogen receptor [3] was “Not Active”.

`O=S(=O)(c1ccccc1)N1CCc2cc(O)ccc2C1` had an EC50 at Estrogen receptor beta [2] of 1 µM.

`O=C(N1CCc2ccc(O)cc2C1)C(F)(F)F`: the concentration giving a half-maximal response (EC50) on Estrogen receptor [1] is 20 µM; at Estrogen receptor beta [2] it was 3.8 µM.

As for `O=S(=O)(c1cccc2ccccc12)N1CCc2cc(O)ccc2C1`, the results for the EC50 at Estrogen receptor [1] and on Estrogen receptor beta [2] were 700 µM and 60 µM, respectively.

For the compound `Br.Oc1ccc2c(c1)CNCC2`, the EC50 entry at Estrogen receptor [3] is “Not Active”.

Take `O=S(=O)(c1cccc2ccccc12)N1CCc2ccc(O)cc2C1`: the concentration giving a half-maximal response (EC50) on Estrogen receptor [1] is 600 µM; at Estrogen receptor beta [2] it was 30 µM.

Take `CC(=O)N1CCc2cc(O)ccc2C1`: the EC50 result on Estrogen receptor [3] and at Estrogen receptor beta [4] was “Not Active” in each case.

Regarding `CS(=O)(=O)N1CCc2cc(O)ccc2C1`, the results for the 50% effective concentration (EC50) on Estrogen receptor [1] and on Estrogen receptor beta [2] were 170 µM and 20 µM, respectively.

On to `CC(=O)N1CCc2ccccc2C1`, for which the concentration giving a half-maximal response (EC50) entry at Estrogen receptor [3] and on Estrogen receptor beta [4] was “Not Active” in each case.

In the case of `O=C(N1CCc2cc(O)ccc2C1)C(F)(F)F`, the 50% effective concentration (EC50) at Estrogen receptor [1] amounted to 5.2 µM; at Estrogen receptor beta [2] it was 0.9 µM.

Consider `Br.Oc1cc2c(cc1O)CNCC2`, for which the EC50 entry at Estrogen receptor [3] is given as “Not Active”.

`O=S(=O)(N1CCc2cc(O)ccc2C1)C(F)(F)F`: the fold change (FC) in assay [5] came to 33; on Estrogen receptor beta [6] it was 7. The EC50 at Estrogen receptor [7] came out at 1.87 µM; on Estrogen receptor beta [8] it was 0.31 µM; at Estrogen receptor [1], 3 µM; at Estrogen receptor beta [2] it was 0.6 µM.

As to `O=C(N1CCc2cc(O)ccc2C1)C(Cl)(Cl)Cl`, the EC50 worked out at 6.2 µM at Estrogen receptor [1] and 3.2 µM on Estrogen receptor beta [2].

In the case of `CS(=O)(=O)N1CCc2ccccc2C1`, the EC50 entry on Estrogen receptor [3] and on Estrogen receptor beta [4] was “Not Active” each time.

Values taken from ChEMBL document CHEMBL1765090, “Design and evaluation of fragment-like estrogen receptor tetrahydroisoquinoline ligands from a scaffold-detection approach” (J Med Chem, 2011).
